Values of other authors as cited in US9107837B2, “Sustained release formulation of naltrexone” (Orexigen Therapeutics, Inc., priority 2006, dated 2015).

Settings: open label, approximately 570 individuals with alcoholism

## O=C1CC[C@@]2(O)[C@H]3Cc4ccc(O)c5c4[C@@]2(CCN3CC2CC2)[C@H]1O5 [naltrexone, 17-(cyclopropylmethyl)-4,5α-epoxy-3,14-dihydroxymorphinan-6-one]
  New-onset adverse reaction: anxiety: 2%
  New-onset adverse reaction: dizziness: 4%
  New-onset adverse reaction: fatigue: 4%
  New-onset adverse reaction: headache: 7%
  New-onset adverse reaction: insomnia: 3%
  New-onset adverse reaction: nausea: 10%
  New-onset adverse reaction: nervousness: 4%
  New-onset adverse reaction: somnolence: 2%
  New-onset adverse reaction: vomiting: 3%
